Data on 2 compounds can be found in patent publication US4226610A, “Herbicidal compounds, preparation thereof and herbicides containing the same” (Meiji Selka Kaisha, Ltd., priority 1978, dated 1980).

Structures are written as SMILES.

One assay relates to water hyacinth. The experiment in a line: Experiment 4 foliar application to water hyacinths with surfactants. In kind it is in vivo, Eichhornia crassipes Solms. Further details: key to Killing index: killing index: 0 = no effect, 5 = death. From the text:
(§1) The detail of the assessment made in the following Experiments of the invention was as follows:
Four months after treatment, evaluation was made for inhibition of reproduction expressed in terms of symbols ranging from (-) to (+++) where (-) means no reproduction, namely complete suppression of reproduction, (±) remarkable suppression of reproduction; (+) considerable suppression of reproduction; (++) medium supprestion of reproduction; and (+++) no suppression of reproduction.
Water was placed in 20 cm.×30 cm. plastic vessels and a liquid fertilizer was added thereto.
Two water hyacinths were floated in each vessel. 0.1 or 0.2% of each of surfactants listed in Table 6 were added to 0.1 or 0.2% aqueous solutions of DL-AMPB choline. Each solution was sprayed by foliar application in an amount of 100 liter per 10 are. The killing index (0, no effect; 5, death) after 21 days and 3 months and the reproduction-inhibiting effect (-, no reproduction; +++, maximum reproduction) after 3 months were determined.

The subject of another assay is miyakozasa. The experiment in a line: Experiment 2 foliar application in Japanese cypress afforested land. The format is in vivo, Sasa nipponica Makino et Shibata. Particulars: 0.125%; after 3 months. As for the experimental part:
as §1
The compounds of the invention and other compounds listed in Table 4. were diluted to prescribed concentrations and sprayed to shrubs by foliar application in a Japanese cypress afforested land in an amount of 150 liter per 10 are.
After 30 days and 3 months, the killing index (0, no effect; 5, death) was determined.
The heights of plants were 50-70 cm. for Japanese cypress, about 50 cm. for chestnut, 50-90 cm. for miyakozasa, about 100 cm. for eulalia and 70-100 cm. for kumaichigo, respectively.

The mark [1] stands for this setting: 0.1%, octylphenyl polyoxyethanol 0.2%, 3 months.

As to `CP(=O)(O)CCC(N)C(=O)O` (racemic) [DL-AMPB choline], the Reproduction-inhibiting effect result is recorded as “+++” with water hyacinth (0.1%, no surfactant, 3 months); “+” with water hyacinth (0.1%, octylphenyl polyoxyethanol 0.1%, 3 months); “±” in the assay with water hyacinth (setting [1]); “++” with water hyacinth (0.1%, polyoxyethylene alkylaryl ether 0.1%, 3 months); “±” in the assay with water hyacinth (0.1%, polyoxyethylene alkylaryl ether 0.2%, 3 months); “++” in the assay with water hyacinth (0.1%, polyoxyethylene dodecyl ether 0.1%, 3 months). The Reproduction-inhibiting effect result in the assay with water hyacinth (0.1%, polyoxyethylene dodecyl ether 0.2%, 3 months) is listed as “±”; with water hyacinth (0.1%, polyoxyethylene sorbitan monooleate 0.1%, 3 months), “++”; in the assay on water hyacinth (0.1%, polyoxyethylene sorbitan monooleate 0.2%, 3 months), “±”; in the assay on water hyacinth (0.1%, polyoxyethylene sorbitan monostearate 0.1%, 3 months) it was “++”; in the assay on water hyacinth (0.1%, polyoxyethylene sorbitan monostearate 0.2%, 3 months), “±”; in the assay on water hyacinth (0.2%, no surfactant, 3 months), “±”. Moreover, the Reproduction-inhibiting effect entry was “-” in the assay with water hyacinth (0.2%, octylphenyl polyoxyethanol 0.1%, 3 months); “-” in the assay on water hyacinth (0.2%, octylphenyl polyoxyethanol 0.2%, 3 months); “-” with water hyacinth (0.2%, polyoxyethylene alkylaryl ether 0.1%, 3 months); “-” with water hyacinth (0.2%, polyoxyethylene alkylaryl ether 0.2%, 3 months); “-” in the assay with water hyacinth (0.2%, polyoxyethylene dodecyl ether 0.1%, 3 months); “-” with water hyacinth (0.2%, polyoxyethylene dodecyl ether 0.2%, 3 months). The Reproduction-inhibiting effect entry with water hyacinth (0.2%, polyoxyethylene sorbitan monooleate 0.1%, 3 months) is “-”; in the assay on water hyacinth (0.2%, polyoxyethylene sorbitan monooleate 0.2%, 3 months), “-”; with water hyacinth (0.2%, polyoxyethylene sorbitan monostearate 0.1%, 3 months), “-”; in the assay on water hyacinth (0.2%, polyoxyethylene sorbitan monostearate 0.2%, 3 months) it was “-”. Moreover, the Killing index in the assay on water hyacinth (setting [1]) was found to be 4.5; in the assay on water hyacinth (0.1%, polyoxyethylene alkylaryl ether 0.1%, 21 days), 2.5; in the assay with water hyacinth (0.1%, polyoxyethylene dodecyl ether 0.1%, 21 days), 2.5; with water hyacinth (0.1%, polyoxyethylene sorbitan monooleate 0.1%, 21 days), 2.5; with water hyacinth (0.1%, polyoxyethylene sorbitan monostearate 0.1%, 21 days), 2.5; in the assay on water hyacinth (0.2%, no surfactant, 3 months), 4.5. For the same compound, the Killing index in the assay on water hyacinth (0.2%, polyoxyethylene alkylaryl ether 0.1%, 21 days) is 4.5; in the assay on water hyacinth (0.2%, polyoxyethylene dodecyl ether 0.1%, 21 days), 4.5; in the assay on water hyacinth (0.2%, polyoxyethylene sorbitan monooleate 0.1%, 21 days), 4.5; with water hyacinth (0.2%, polyoxyethylene sorbitan monostearate 0.1%, 21 days), 4.5.

In the assay with miyakozasa, `C[C@H](NC(=O)[C@H](C)NC(=O)[C@@H](N)CCP(C)(=O)O)C(=O)O` [SF-1293 choline, (L-2-Amino-4-methylphosphinobutyryl)-L-alanyl-L-alanine choline] registered a Killing index of 4.5.
